One assay concerns Lgr5^hi ISCs. As to the kind of experiment: Frequency of Lgr5hi ISCs by flow cytometry in rapamycin-treated mice. The class given is in vivo. As to conditions: Rapamycin 4 mg/kg daily i.p., 4 weeks, n=13-14, FIG. 3g. An excerpt:
(§1) Mice were housed in the Unit for Laboratory Animal Medicine at the Whitehead Institute for Biomedical Research. Lgr5-EGFP-IRES-CreERT2 mice (Strain name: B6.129P2-Lgr5tm1(cre/ERT2)Cle/J, Stock Number: 008875) were purchased from Jackson Laboratories. UbiquitinC-CreERT2 mice were obtained from the Jackson Laboratory (Strain Name: B6; 129S-Tg(UBC-cre/ERT2)1Ejb/J, Stock Number: 007001). Rictor floxed mice were generated as described in^27 and backcrossed to C57BL/6 for at least 6 generations. TSC1^loxp/loxp mice were the generous gift of D. Kwiatkowski (Harvard Medical School) and backcrossed to C57BL/6 for at least 6 generations. Rosa26-CreERT2 mice (Rosa26 or R26) were obtained from the Jackson Laboratory (Strain 15 Name: B6.129-Gt(ROSA)26Sor^iml(cre/ERT2)Tyj/J, Stock Number 008463). CR was achieved by providing individual or paired mice a daily portion of a chow diet fortified with vitamins and minerals amounting to 60% of the daily food intake of their ad libitum counterparts^20. All adult mice used in CR experiments were between the ages of 10 to 24 weeks and were sacrificed prior to their daily feeding. Rictor or TSC1 was excised by treatment with tamoxifen suspended in corn or sunflower seed oil (Spectrum) at a concentration of 10 mg/mL, and 200 μl per 25 g of body weight was injected intraperitoneally into mice once daily for 5-7 days. […]

The subject of assay [1] is Paneth cells. As to the kind of experiment: Frequency of Paneth cells by flow cytometry in rapamycin-treated mice. The class given is in vivo. Particulars: Rapamycin 4 mg/kg daily i.p., 4 weeks, n=13-14, FIG. 3h.
Description: as §1
(A flow cytometer gives signals particle by particle.)

Another assay deals with Bst-1. As to the kind of experiment: Bst-1 protein expression by immunoblots of crypts and immunostains of Paneth cells. Particulars: FIG. 4c. It is filed as in vivo, mice. On the procedure: Tissues were fixed in 10% formalin, paraffin embedded, and sectioned. Antigen retrieval was performed with Borg Decloaker RTU solution (Biocare Medical) in a pressurized Decloaking Chamber (Biocare Medical) for 3 minutes. Antibodies: rat anti-BrdU (1:2000; Abeam 6326), rabbit phospho-S6 Ser235/236 (1:500, CST 4858), rabbit cleaved caspase 3 (1:500; CST 9664), rabbit chromogranin A (1:3000, Abeam 15160), rabbit Lysozyme (1:2000; Thermo), rabbit Bst-1 (1:1000, Abeam 74301) and mouse Bst-1 (1:100 to 500, BD Pharmingen). For mouse Bst-1, the M.O.M (mouse on mouse) kit was used according to the manufacturer's instructions (Vector labs PK-2200). Biotin conjugated secondary donkey anti-rabbit or rat antibodies were used from Jackson ImmunoResearch. The Vectastain Elite ABC immunoperoxidase detection kit (Vector Labs PK-6101) followed by Dako Liquid DAB+ Substrate (Dako) was used for visualization. For immunofluorescence Alexa Fluor 568 secondary antibodies (Invitrogen) were used. All antibody incubations were performed with Common Antibody Diluent (Biogenex).
Antibodies: rabbit anti phospho-T389 S6K1, phospho-S240/244 S6, S6K1, and S6 from CST; rabbit Bst-1 (ab74301) from Abeam; mouse anti_-actin (clone AC-15) from Sigma. […] Proteins extracts were denatured by the addition of sample buffer, boiled for […], resolved by SDS-PAGE, and analyzed by immunoblotting.
For orientation: In western blotting, separated proteins are transferred to a membrane and probed.

Assay [2] relates to Paneth cells. As to the kind of experiment: Paneth cell numbers in small intestine after 10 Gy ionizing radiation (histology). The class given is in vivo, mice. As to conditions: for number of Paneth cells vs irradiated control, pre- and post-treatment: 4 mg/kg IP daily 1 week, 10 Gy gamma rays, then intermittent rapamycin two weeks, FIG. 14c; for number of Paneth cells vs irradiated control, post-treatment only: 10 Gy followed by intermittent rapamycin over two weeks, FIG. 14b. Here is the method:
Paneth cells are essential to the survival of Lgr5+ intestinal stem cells. […] The clonogenicity of ISCs is enhanced by co-culturing of these cells with Paneth cells from mice treated with caloric restriction or rapamycin (FIG. 13a). […] Mice were also treated with 10 Gy of radiation followed by intermittent treatment with rapamycin over the two weeks. […] Accordingly, rapamycin and derivatives or analogs or other agents thereof which inhibit mTOR, and/or and caloric restriction can be employed as agents for increasing the number and function of intestinal stem cells and Paneth cells, and as radioprotective agents against the acute and late toxicities of deliberate and accidental exposure to ionizing radiation.

For `CO[C@H]1C[C@@H]2CC[C@@H](C)[C@@](O)(O2)C(=O)C(=O)N2CCCC[C@H]2C(=O)O[C@H]([C@H](C)C[C@@H]2CC[C@@H](O)[C@H](OC)C2)CC(=O)[C@H](C)/C=C(\C)[C@@H](O)[C@@H](OC)C(=O)[C@H](C)C[C@H](C)/C=C/C=C/C=C/1C` [Rapamycin, sirolimus], the “increase in frequency of ISCs vs vehicle” value with Lgr5^hi ISCs is recorded as “more than 1.5 fold”. In addition, the “increase in frequency of Paneth cells vs vehicle” value in the assay with Paneth cells [1] is “more than 1.5 fold”. In the assay on Bst-1 (crypts (immunoblots) and Paneth cells (immunostains) of treated mice, d), the Bst-1 protein expression result is on record as “increased”. The “SDS-PAGE mobility of Bst-1” value with Bst-1 (immunoblots of crypts) is “affected the SDS-PAGE mobility of Bst-1”. The “number of Paneth cells vs irradiated control, pre- and post-treatment” value in the assay with Paneth cells [2] was “increase in the number of morphologically normal Paneth cells”; in the assay on Paneth cells [2] (listed as rapamycin), “significantly higher numbers of Paneth cells”. The “number of Paneth cells vs irradiated control, post-treatment only” value is reported as “increase in the number of morphologically normal Paneth cells” in the assay with Paneth cells [2] and “significantly higher numbers of Paneth cells” in the assay with Paneth cells [2] (listed as rapamycin).

These data come from patent US9532997B2, “Compositions and methods for promoting intestinal stem cell function” (Whitehead Institute for Biomedical Research, priority 2012, dated 2017).
